# Measured values: US12209072B2, “Cyclopentyl acids as LPA antagonists” (BRISTOL-MYERS SQUIBB COMPANY, priority 2018, dated 2025)
# Target: T1, human LPA1 (Homo sapiens, UniProt Q92633)
# T1 construct: expressed in transfected cells; host or cells: Chinese hamster ovary (CHO) cells
# Assay: LPA1 functional antagonist assay (LPA-induced calcium flux)
# Assay type: cell-based
# Conditions: CHO cells overexpressing human LPA1; inhibition of calcium flux induced by 10 nM LPA; read-out: hLPA1 IC50
# How it was run: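 CHO cells overexpressing human LPA1, loaded with calcium dye, given compound (0.08 nM–5 μM final, 0.5% DMSO) for 20 min at room temperature in HBSS/HEPES with 0.1% fatty-acid-free BSA, then stimulated with 10 nM LPA. IC50 defined as 50% inhibition of LPA-induced calcium flux, from 4-parameter logistic fit.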
# T1 sequence (Q92633 whole entry): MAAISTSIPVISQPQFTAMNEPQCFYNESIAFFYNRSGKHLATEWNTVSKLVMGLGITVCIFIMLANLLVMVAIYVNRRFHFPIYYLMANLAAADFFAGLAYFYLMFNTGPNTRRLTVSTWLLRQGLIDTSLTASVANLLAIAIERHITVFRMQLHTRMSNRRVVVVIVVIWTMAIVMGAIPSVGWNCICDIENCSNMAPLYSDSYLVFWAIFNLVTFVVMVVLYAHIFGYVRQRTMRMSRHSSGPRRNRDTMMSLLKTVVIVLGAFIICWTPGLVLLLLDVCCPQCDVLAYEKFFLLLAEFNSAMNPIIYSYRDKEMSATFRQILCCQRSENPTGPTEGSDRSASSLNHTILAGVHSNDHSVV
row,Structure (SMILES),IC50
1,"CCCCN(C)C(=O)OCc1c(-c2ccc(O[C@H]3CC[C@H](CC(=O)O)C3)c(C)n2)nnn1C (single isomer, unassigned) [Example 5, (±)-Trans-2-(3-((6-(5-(((butyl(methyl)carbamoyl)oxy)methyl)-1-methyl-1H-1,2,3-triazol-4-yl)-2-methylpyridin-3-yl)oxy)cyclopentyl)acetic Acid]",952 nM
2,"Cc1nc(-c2nnn(C)c2COC(=O)N(C)CC2CCC2)ccc1O[C@H]1CC[C@H](CC(=O)O)C1 (single isomer, unassigned) [Example 7, (±)-Trans-2-((1,3)-3-((6-(5-((((cyclobutylmethyl)(methyl)carbamoyl)oxy)methyl)-1-methyl-1H-1,2,3-triazol-4-yl)-2-methylpyridin-3-yl)oxy)cyclopentyl) acetic Acid]",750 nM
3,"Cc1nc(-c2cnn(C)c2COC(=O)N(C)CC2CCC2)cnc1O[C@H]1CC[C@H](C(=O)O)C1 (single isomer, unassigned) [Example 17]",416 nM
4,"Cc1nc(-c2cnn(C)c2CNC(=O)OCc2ccccc2)cnc1O[C@H]1CC[C@H](C(=O)O)C1 (single isomer, unassigned) [Example 19, Trans-3-((5-(5-((((benzyloxy)carbonyl)amino)methyl)-1-methyl-1H-pyrazol-4-yl)-3-methylpyrazin-2-yl)oxy)cyclopentanecarboxylic Acid]",202 nM
5,"Cc1nc(-c2nnn(C)c2COC(=O)N(C)CC2CCC2)cnc1O[C@H]1CC[C@H](CC(=O)O)C1 (single isomer, unassigned) [Example 27, 2-(trans-3-((5-(5-((((cyclobutylmethyl)(methyl)carbamoyl)oxy)methyl)-1-methyl-1H-1,2,3-triazol-4-yl)-3-methylpyrazin-2-yl)oxy)cyclopentyl)acetic Acid]",260 nM
6,"Cc1nc(-c2nnn(C)c2COC(=O)N(C)CC2CCC2)cnc1O[C@H]1CC[C@H](CC(=O)O)C1 (single isomer, unassigned) [Example 28, 2-(trans-3-((5-(5-((((cyclobutylmethyl)(methyl)carbamoyl)oxy)methyl)-1-methyl-1H-1,2,3-triazol-4-yl)-3-methylpyrazin-2-yl)oxy)cyclopentyl)acetic Acid]",3750 nM
7,"Cc1noc(-c2ccc(OC3CCC(C(=O)O)C3)cn2)c1CNc1nccc(-c2ccccc2)n1 (single isomer, unassigned) [Example 44]",158 nM

# These reach a lower IC50. Values come first.
row,IC50,Structure (SMILES)
1,56 nM,"Cc1nc(-c2nnn(C)c2CNC(=O)OCc2ccccc2)ccc1O[C@@H]1CC[C@@H](C(=O)O)C1 (single isomer, unassigned) [Example 21, Trans-3-((6-(5-((((benzyloxy)carbonyl)amino)methyl)-1-methyl-1H-1,2,3-triazol-4-yl)-2-methyl-pyridin-3-yl)oxy)cyclopentane carboxylic acid]"
2,56 nM,"Cc1noc(-c2ccc(OC3CCC(C(=O)O)C3)cn2)c1CNc1nccc(-c2ccccc2)n1 (single isomer, unassigned) [Example 46]"
3,50 nM,"Cc1noc(-c2ccc(OC3CCC(C(=O)O)C3)cn2)c1CNc1nccc(-c2ccccc2)n1 (single isomer, unassigned) [Example 43]"
4,17 nM,"Cc1noc(-c2ccc(OC3CCC(C(=O)O)C3)cn2)c1CNc1nccc(-c2ccccc2)n1 (single isomer, unassigned) [Example 45]"
5,11 nM,"Cc1nc(-c2nnn(C)c2COC(=O)N(C)CC2CCC2)ccc1O[C@H]1CC[C@H](CC(=O)O)C1 (single isomer, unassigned) [Example 6, (±)-Trans-2-((1,3)-3-((6-(5-((((cyclobutylmethyl)(methyl)carbamoyl)oxy)methyl)-1-methyl-1H-1,2,3-triazol-4-yl)-2-methylpyridin-3-yl)oxy)cyclopentyl) acetic Acid]"
6,10.8 nM,"Cc1nc(-c2nnn(C)c2COC(=O)N(C)CC2CCC2)ccc1OC[C@@H]1CC[C@H](C(=O)O)C1 (single isomer, unassigned) [Example 31]"
7,9.7 nM,"Cc1nc(-c2nnn(C)c2COC(=O)N(C)CC2CCC2)ccc1OC[C@H]1CC[C@@H](C(=O)O)C1 (single isomer, unassigned) [Example 32]"
